From patent US4829061A, “1-(4-Hydroxy-3,5-di-tert.-butylbenzoyl)homopiperazine, various derivatives thereof, processes for the preparation of these compounds, medicaments containing them, and their use” (Hoechst Aktiengesellschaft, priority 1987, dated 1989)

Tests used:
[1] = Determination of toxicity in the rat, 14 days (weight gain); format: in vivo, rat (male and female Wistar); conditions: 50 or 75 mg/kg p.o. each day for 14 days
Method: (§1) The antiinflammatory effect of the compounds of the formula I, according to the invention, was tested on adjuvant arthritis, and the effect on forms of rheumatic disorders having a severe course (chronic graft-versus-host diseases and autoimmune diseases mediated by immune complexes) was tested on the chronic graft-versus-host (cGvH) reaction in the mouse and in the reverse passive Arthus reaction in the rat in accordance with the animal models described below. The tolerability was determined by determining the toxicity in rats, namely by continuous administration for 14 days.
Groups of 10 male and female Wistar rats were fed each day for a period of 14 days with 50 or 75 mg/kg p.o., and were weighed every 2 days. The experiment was terminated after 14 days, and the weight gain was determined. The same number of rats not treated with the products acted as controls. […] This is regarded as a critical parameter for the tolerability of a compound.

[2] = tested on: adjuvant-induced arthritis in the rat; test: Adjuvant arthritis (method of Pearson), paw volume; format: in vivo, rat (male, Wistar-Lewis strain); conditions: 50 mg/kg p.o. once a day, day 1 to 5; reduction in increase in paw volume vs control
Method: as §1
The investigations were carried out by the method of Pearson (Arthrit. Rheum. 2 (1959) page 44). The test animals used were male rats of a Wistar-Lewis strain with a body weight between 130 and 200 g. The compounds to be tested were administered orally (p.o.) in doses of 50 mg per kg of body weight once a day from the 1st to the 5th day of the experiment. The animals in a control group received only the vehicle. Each product and control group comprised 8 animals. The criterion used for an effect was the percentage reduction in the increase in paw volume compared with that in the untreated control group.

cGvH disease = test: Chronic graft-versus-host (cGvH) reaction in the mouse; format: in vivo, mouse (female (DBA/2×C57Bl/6)F1); conditions: 6 weeks from day 21
Method: as §1
The features of graft-versus-host disease, which is based on an immune reaction originating from the transplant and directed against the host tissue, are, in the form having an acute course which almost always ends fatally, enlargement of the spleen, hepatomegaly, lymph node hypertrophy, hemolytic anemia, low immunoglobulin and complement levels, and diminished immunoreactivity. The chronic form of the disease, which has a somewhat milder course, results in lymphadenopathy, immune complex glomerulonephritis and excessive formation of non-organ-specific autoantibodies. The clinical picture of systemic lupus erythematosus (SLE), which is likewise one of the autoimmune diseases, has similar features.
Investigation of the compounds used according to the invention on the course of the cGvH disease induced in response to two injections of spleen and thymus cells, mixed together, in female mice of the (DBA/2×C57Bl/6)F1 generation was carried out by the design of experiment described by S. Popovic and R. R. Bartlett (Agents and Actions 21 (1987), 284-286), with intravenous administration, at a time interval of 7 days, of, in each case, 5×10^7 DBA/2 cells, likewise obtained from female donor animals, in 0.2 ml of culture medium. For reliable assessment of the course and appearance of the disease, a group of healthy animals was included as negative controls in all the experiments. The 6-week oral treatment of the animals with the disease took place from day 21 after the first donor cell injection, with administration once a day of the test substance or the pure vehicle (positive controls). […]
The action of the product was assessed on the basis of the inhibition of proteinuria and the cGvH index. The animals with the disease develop, as a consequence of the damage to nephrons due to deposition of immune complexes on the basement membranes of the glomeruli, a pronounced proteinuria which correlates with the extent of the glomerulonephritis and can easily be quantified by the increase in the amount of protein excreted with the urine. The second measured parameter, the cGvH index, is based on the great enlargement of the spleen (splenomegaly) caused by the cGvH reaction. […]

[3] = tested on: reverse passive Arthus reaction; test: Reverse passive Arthus reaction in the rat; format: in vivo, rat (female and male Sprague-Dawley); conditions: 1 hour before induction, paw volume 4 hours after ovalbumin challenge
Method: as §1
The experimental animals used were female and male Sprague-Dawley rats with a body weight between 80 and 100 g. The rats were divided into groups each comprising 8 animals. 1 hour before the Arthus reaction was induced by injection of 0.1 ml of an anti-rat IgG solution (0.6 mg/ml) into the right rear paw, the particular test substance or the pure vehicle (positive controls) was administered orally. Sodium chloride solution was injected into the left paw. A group of non-sensitized animals (negative controls) was likewise treated with ovalbumin in order to be able to rule out non-specific reactions to the protein. The parameter used to measure the action of the products was the percentage change in the increase in paw volume compared with that in the control group (positive controls) which, although sensitized, was untreated, 4 hours after the ovalbumin challenge, when the swelling had reached its maximum.

Row | Compound | change in the weights (weight gain) [1] | % inhibition in paw volume day 5 [2] [%] | % inhibition Proteinuria (cGvH disease; 5 mg/kg/day p.o.) [%] | % inhibition cGvH index (cGvH disease; 5 mg/kg/day p.o.) [%] | % inhibition Proteinuria (cGvH disease; 20 mg/kg/day p.o.) [%] | % inhibition cGvH index (cGvH disease; 20 mg/kg/day p.o.) [%] | Reverse passive Arthus reaction, % inhibition ([3]; 100 mg/kg p.o.) [%] | Reverse passive Arthus reaction, % inhibition ([3]; 20 mg/kg p.o.) [%] | Reverse passive Arthus reaction, % inhibition ([3]; 25 mg/kg p.o.) [%]
1 | CC(C)(C)c1cc(C(=O)N2CCCN(C(=O)OCc3ccccc3)CC2)cc(C(C)(C)C)c1O [Example 1, 1-(4-Hydroxy-3,5-di-tert.-butylbenzoyl)-4-benzyloxycarbonylhomopiperazine] | no significant change in the weights | 25 | 100 | 57 | 80 | 75 | 25 |  | 
2 | CC(C)(C)c1cc(C(=O)N2CCCNCC2)cc(C(C)(C)C)c1O [Example 2, 1-(4-Hydroxy-3,5-di-tert.-butylbenzoyl)homopiperazine] | no significant change in the weights | 34 |  |  |  |  |  | 28 | 37
